# Values of other authors in patent US8133194B2 (Henry Ford Health System, priority 2006, dated 2012).
# What was measured:
# [1] = ICU patients
# [2] = as stated for pre-filter fluid pH
# [3] = under normal conditions, equal to the renal plasma flow
K(b) liver clearance of citrate [1] [L/min],pKa3 [2],PAH clearance [3],Structure (SMILES)
0.2 to 0.5,6.3,,O=C(O)CC(O)(CC(=O)O)C(=O)O [Citrate]
,,up to 0.6 L/minute,"Nc1ccc(C(=O)NCC(=O)O)cc1 [PAH, para-amino-hippuric acid]"
